Test results: patent publication US5013757A, “Physiologically active substance Tan-931, its derivatives, their production and use” (Takeda Chemical Industries, Ltd., priority 1988, dated 1991)

What was measured:
human placenta aromatase = biological target: T1, human placenta aromatase (Homo sapiens, UniProt P11511); assay: In vitro human placenta microsome aromatase inhibitory activity; format: biochemical; conditions: androstenedione 4 μM, 37° C., 1 hour
T1 construct: The resulting pellet was used as a microsome fraction; from tissue; host or cells: human placenta, microsome fraction (148,000×g pellet)
T1 sequence (P11511 1-503): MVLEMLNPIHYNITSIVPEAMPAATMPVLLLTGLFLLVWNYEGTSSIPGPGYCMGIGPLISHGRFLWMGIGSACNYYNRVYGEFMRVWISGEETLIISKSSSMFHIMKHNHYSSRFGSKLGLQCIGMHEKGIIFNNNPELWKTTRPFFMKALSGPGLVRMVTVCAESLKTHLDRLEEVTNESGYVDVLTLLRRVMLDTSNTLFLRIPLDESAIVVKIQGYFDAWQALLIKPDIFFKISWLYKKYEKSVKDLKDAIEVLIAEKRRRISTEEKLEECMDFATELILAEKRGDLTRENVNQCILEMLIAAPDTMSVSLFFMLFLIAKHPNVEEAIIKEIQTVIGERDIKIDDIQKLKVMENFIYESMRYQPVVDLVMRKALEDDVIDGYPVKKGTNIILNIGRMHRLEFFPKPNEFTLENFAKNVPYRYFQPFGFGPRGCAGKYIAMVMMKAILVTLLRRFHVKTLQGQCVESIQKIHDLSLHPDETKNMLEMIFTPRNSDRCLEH
Source text: (§1) The following Experiments specifically illustrate in vitro human placenta aromatase inhibitory activity and inhibition of estrogen synthesis in the rat by the compounds of the present invention.
Preparation of human placenta microsome
The method of F. A. Thompson et al. [J. Biol. Chem., 249, 5364 (1974)] was partly modified. Namely, the placenta was washed with 0.15 M KCl which was previously cooled to remove the attached membrane and large blood vessels and then sufficiently and finely cut with scissors. To the finely cut tissue was added 2 ml of cold 0.02 M phosphate buffer containing 0.25M sucrose (pH 7.4) per 1 g of the tissue and the mixture was homogenized with Polytron homogenizer (30 second×3, in ice). Then, the mixture was centrifuged at 800×g for 10 minutes and the supernatant was centrifuged at 20,000×g for 30 minutes and further at 148,000×g for 45 minutes. The resulting pellet was used as a microsome fraction. The microsome obtained was suspended in 1 ml of the above phosphate buffer per 10 g of the placenta and stored at -80° C. Upon use, it was diluted 5 to 6 times.
Determination of aromatase activity and inhibitory activity
The method of F. A. Thompson et al. [see above] was partly modified as follows.
A reaction mixture (225 μl ) containing 4-androstene-3,17-dione (4 μM ), 1,2 [^3 H]-androstenedione (140,000 dpm), NADPH (550 μM ) and the above microsome (20 μl ) and a solution containing an inhibitor or not (5 μl ) was incubated at 37° C. for 1 hour. According to this determination, [^3 H]-H2 O was formed by aromatization of androstenedione. Then, the reaction mixture was extracted with chloroform (0.5 ml) to separate layers and the aqueous layer obtained was treated with 5% activated carbon (0.25 ml) to remove the free steroid. After high-speed centrifugation, to the supernatant (0.2 ml) was added scintillator (3 ml) and radioactivity was determined with a liquid scintillation counter. By comparing the result obtained by addition of an inhibitor with that of a control sample wherein the reaction was carried out without addition of any inhibitor, an inhibitory rate (%) was calculated. The effectiveness was expressed by the concentration which was required for inhibiting 50% of the enzyme activity at the substrate (androstenedione) concentration of 4 μM

[1] = tested on: estrogen synthesis in rat; assay: In vivo inhibition of estrogen synthesis in PMSG-stimulated young female rats; set-up: species or system SD rats (female, 19 days old)
Method: as §1
In vivo inhibition of estrogen synthesis by the compound 1 (TAN-931) was studied by the following experiment.
Five young SD rats (female, 19 days old) were used per one group. The rats of test groups were administered the compound suspended in 0.2% gum arabic-physiological saline solution subcutaneously at the doses of 25, 50 and 100 mg/kg for 4 days at 24-hour intervals. The rats of control groups (Control 1 and 2) were administered 0.2 ml of 0.2% gum arabic-physiological saline solution. After administration of the compound on the third day after initiation of the test, a single dose of 10 U/rat (s.c.) of pregnant mare's serum gonadotropin (PMSG) was administered to the rats of test groups and Control 2. […] After centrifugation, the plasma was obtained and the plasma estradiol-17 β level was determined by radio immunoassay. Further, the uterus and ovarium were removed from the rat, freed from connective tissue and the like and weighed, respectively. As the control compound for estimation of the pharmacological activity, 4-hydroxyandrostenedione (4-OHA) was used.

Acute toxicity in mice = conditions: mouse, in vivo, sc; subcutaneous, male mice (4 weeks old)
Source text: Thus, the compounds (I-1) have a potent aromatase inhibitory activity and, therefore, they can be advantageously used for prevention and treatment of estrogen dependent diseases such as breast cancer, endometriosis, endometrium cancer, benign breast diseases, prostatomegaly and the like as well as for control of conception. Further, toxicity of the compounds (I-1) of the present invention is low.

Solubility of TAN-931 = format: physicochemical
[2] = tested on: various enzymes which pertain to biosynthesis of steroid hormones; conditions: background statement; cited from earlier work
[3] = 25 mg/kg/day s.c., 4 days, PMSG
[4] = 50 mg/kg/day s.c., 4 days, PMSG
[5] = 100 mg/kg/day s.c., 4 days, PMSG

Row | Compound | IC50 (human placenta aromatase) [µM] | further results
1 | O=Cc1cc(C(=O)O)cc(O)c1C(=O)c1c(O)cccc1O [Compound 1] | 17.2 | Plasma estradiol 17-B level [1, 3]: 312.8 ± 192.4 pg/mL; Tissue weight Ovarium [1, 3]: 24.2 ± 6.2 mg; Tissue weight Uterus [1, 3]: 108.4 ± 15.6 mg; Plasma estradiol 17-B level [1, 4]: 80.8 ± 64.2 pg/mL; Tissue weight Ovarium [1, 4]: 16.4 ± 6.4 mg; Tissue weight Uterus [1, 4]: 89.4 ± 30.8 mg; Plasma estradiol 17-B level [1, 5]: 50.2 ± 23.5 pg/mL; Tissue weight Ovarium [1, 5]: 14.5 ± 1.5 mg; Tissue weight Uterus [1, 5]: 66.3 ± 38.0 mg; blood estrogen level raised by stimulation due to PMSG administration ([1]; result in words): significantly lowered; LD50 (Acute toxicity in mice): ≥ 800 mg/kg; Solubility (Solubility of TAN-931; chloroform, diethyl ether): Slightly soluble; Solubility (Solubility of TAN-931; dimethylsulfoxide (DMSO), methanol, ethanol, acetone): Soluble; Solubility (Solubility of TAN-931; water, n-hexane): Insoluble
2 | COC(=O)c1cc(O)c(C(=O)c2c(O)cccc2O)c(C=O)c1 [Compound 2] | 22.1 | –
3 | COCOC(=O)c1cc(O)c(C(=O)c2c(O)cccc2O)c(C=O)c1 [Compound 3] | 12.4 | –
4 | C[C@]12CCC(=O)C(O)=C1CC[C@@H]1[C@@H]2CC[C@]2(C)C(=O)CC[C@@H]12 [Compound 4-OHA, 4-hydroxyandrostenedione, reference compound] | – | Plasma estradiol 17-B level [1, 5]: 149.6 ± 76.7 pg/mL; Tissue weight Ovarium [1, 5]: 28.4 ± 7.9 mg; Tissue weight Uterus [1, 5]: 85.9 ± 13.0 mg; Weight gain [1, 5]: 22.2 ± 1.5 g
5 | O=Cc1cc(C(=O)OCc2ccccc2)cc(O)c1C(=O)c1c(O)cccc1O [Compound 4] | 206 | –
6 | CCCCCCOC(=O)c1cc(O)c(C(=O)c2c(O)cccc2O)c(C=O)c1 [Compound 5] | 32.3 | –
7 | CNC(=O)c1cc(O)c(C(=O)c2c(O)cccc2O)c(C=O)c1 [Compound 6] | 21.3 | –
8 | CN(C)C(=O)c1cc(O)c(C(=O)c2c(O)cccc2O)c(C=O)c1 [Compound 7] | 14.6 | –
9 | CCCCCCNC(=O)c1cc(O)c(C(=O)c2c(O)cccc2O)c(C=O)c1 [Compound 8] | 17.6 | –
10 | C=CCNC(=O)c1cc(O)c(C(=O)c2c(O)cccc2O)c(C=O)c1 [Compound 9] | 15.2 | –
11 | CC(C)NC(=O)c1cc(O)c(C(=O)c2c(O)cccc2O)c(C=O)c1 [Compound 10] | 25.6 | –
12 | O=Cc1cc(C(=O)N2CCOCC2)cc(O)c1C(=O)c1c(O)cccc1O [Compound 11] | 16.4 | –
13 | O=Cc1cc(C(=O)N2CCCC2)cc(O)c1C(=O)c1c(O)cccc1O [Compound 12] | 23.4 | –
14 | Cc1ccc(NC(=O)c2cc(O)c(C(=O)c3c(O)cccc3O)c(C=O)c2)cc1 [Compound 13] | 16.1 | –
15 | CN(C)CCNC(=O)c1cc(O)c(C(=O)c2c(O)cccc2O)c(C=O)c1 [Compound 14] | 16.9 | –
16 | COc1cc(C(=O)O)cc(C=O)c1C(=O)c1c(O)cccc1O [Compound 15] | 24 | –
17 | COc1cccc(O)c1C(=O)c1c(O)cc(C(=O)O)cc1C=O [Compound 16] | 135 | –
18 | COc1cccc(O)c1C(=O)c1c(C=O)cc(C(=O)O)cc1OC [Compound 17] | 96.6 | –
19 | COc1cc(C(=O)N(C)C)cc(C=O)c1C(=O)c1c(O)cccc1O [Compound 19] | 18.3 | –
20 | O=Cc1cc(C(=O)O)cc(O)c1C(=O)c1c(O)ccc(Cl)c1O [Compound 27] | 14.3 | –
21 | CCC1(c2ccc(N)cc2)CCC(=O)NC1=O (centres unmarked) [aminoglutethimide] | – | inhibition of enzymes of steroid hormone biosynthesis [2]: inhibits various enzymes
